Measurements: US12337003B2, “Pharmaceutical compositions for combination therapy” (Intercept Pharmaceuticals, Inc., priority 2015, dated 2025)

Experiments:
[1] = system: rat aortic smooth muscle cell; details: Li 2007; cited from earlier work
[2] = system: APOE*3Leiden.CETP transgenic mice on high fat diet; assay: Diet induced NASH in APOE*3Leiden.CETP mice, hepatic inflammation score; type: in vivo
Description: This experiment was performed to evaluate the effects of OCA and fenofibrate, alone or in combination, on the development of diet induced NASH and liver fibrosis in APOE*3Leiden.CETP transgenic mice. Hepatic gene expression profiling and subsequent pathway analysis were performed to determine whether the combination regulates novel genes not regulated by either monotherapy treatment, and/or more strongly regulates genes also impacted by the monotherapy.
Male APOE*3Leiden.CETP transgenic mice (9-21 weeks old) were obtained and housed 2-5 mice per cage. The mice were fed a high fat diet containing 24% lard and 1% (w/w) cholesterol. The run in period was 15 weeks on the high fat diet. At week 16, mice were matched based on age, body weight, plasma cholesterol and triglycerides after 4 h fasting.
• Mice (n=15) were fed a high fat diet during the run in weeks 0 to 14. Group 2: HFC control group • Mice (n=15) were fed a high fat diet from weeks 0 to 24. Group 3: HFC+OCA • Mice (n=15) were fed a high fat diet supplemented with OCA at a dose of 10 mg/kg once daily from week 16 to 24. Group 4: HFC+low dose fenofibrate • Mice (n=15) were fed a high fat diet supplemented with fenofibrate at a dose of 10 mg/kg once daily from week 16 to 24. Group 5: HFC+high dose fenofibrate • Mice (n=15) were fed a high fat diet supplemented with fenofibrate at a dose of 40 mg/kg once daily from week 16 to 24. Group 6: HFC+OCA+low dose fenofibrate • Mice (n=15) were fed a high fat diet supplemented with OCA at a dose of 10 mg/kg once daily and fenofibrate at a dose of 10 mg/kg once daily from week 16 to 24. Group 7: HFC+OCA+high dose fenofibrate • Mice (n=15) were fed a high fat diet supplemented with OCA at a dose of 10 mg/kg once daily and fenofibrate at a dose of 40 mg/kg once daily from week 16 to 24. Group 8: Chow control group • Mice (n=8) were feed chow from week 0 to 24. Study Design
Mice were fed a high fat chow (HFC) diet for […]. After 15 weeks on the HFC diet, HFC mice were matched into 7 groups based on age, body weight, plasma cholesterol and triglycerides after 4 h fasting. Mice were treated with of OCA and fenofibrate, alone or in combination beginning at week 15 and sacrificed at week 25 in an unfasted state. One week before sacrifice, mice were labeled with D20, by i.p. injection of a bolus of D20 and subsequent addition of 4% D20 to the drinking water. Plasma (EDTA) was obtained by heart puncture and stored at −70° C. The liver was weighed and 4 pieces of liver were isolated: 1 piece (medial lobe) was fixed in 10% formalin (for NASH and fibrosis histology) and 3 pieces (sinister lobe) were snap-frozen in liquid N2 and stored individually at −70° C.
Inflammation is a key feature of NASH. Inflammation was categorized according to the procedure by Liang et al., PlosOne 2014 Dec. 9(12) and scored by quantitatively analyzing the number of inflammatory cells aggregates. In particular, the level of inflammation was evaluated by counting the number of inflammatory foci per field using a 100× magnification (view size of 3.1 mm2; average of five different fields).

[3] = system: fibrosis induced by common bile duct ligation in mice; assay: Bile duct ligation (BDL) model, Sirius-red staining of liver sections; type: in vivo, C57BL/6 mice; details: mean ± SD, OCA 5 mg/kg and/or atorvastatin 10 mg/kg orally once daily day 0 to day 6
Description: This experiment was performed to evaluate the effects of OCA and atorvastatin alone, and in combination, on fibrosis induced by common bile duct ligation in mice.
Male C57BL/6 mice (6 weeks of age) were obtained from Japan SLC. The animals were maintained in a specific pathogen free facility under controlled conditions of temperature (23±2° C.), humidity (45±10%), lighting (12-hour artificial light and dark cycles; light from 8:00 to 20:00), and air exchange (air exchange rate: more than 40 times/hour). A high pressure (20±4 Pa) was maintained in the experimental room to prevent contamination of the facility. The animals were housed in KN-600 (Natsume Seisakusho, Japan) with a maximum of 6 mice per cage. […]
Viability, clinical signs and behavior were monitored daily. Body weight was recorded daily during the treatment period. Food consumption was measured twice weekly per cage during the treatment period. […]
To visualize collagen deposition, Bouin's-fixed left lateral liver sections were stained using picro-Sirius red solution (Waldeck, Germany). For quantitative analysis of the fibrosis area, bright field images of Sirius red-stained sections were captured around the central vein using a digital camera (DFC295; Leica, Germany) at 100-fold magnification, and the positive areas in 5 fields/section were measured using ImageJ software (National Institute of Health, USA). […]

SMILES: CC[C@H]1[C@@H](O)[C@@H]2[C@H](CC[C@]3(C)[C@@H]([C@H](C)CCC(=O)O)CC[C@@H]23)[C@@]2(C)CC[C@@H](O)C[C@@H]12 [OCA, 3α,7α-dihydroxy-6α-ethyl-5β-cholan-24-oic acid]
- pharmacologically-induced rat aortic smooth muscle cell migration [1]: abolished
- production of iNOS or COX-2 induced by IL-1β [1]: inhibited
- Inflammation (# of inflammatory cell foci) ([2]; OCA 10 mg/kg and/or low dose fenofibrate 10 mg/kg, in high fat diet): 29.1 ± 22.7
- effect on number of inflammatory cell foci ([2]; after 10 weeks, OCA 10 mg/kg and/or fenofibrate 10 mg/kg, relative to vehicle control): neither OCA (10 mg/kg) nor fenofibrate (10 mg/kg) reduced
- Sirius red-positive area (%) [3]: 2.06 ± 0.37%
